Earlier results on two substances are cited in patent publication US10179172B2, “Liquid pharmaceutical formulations for injection comprising yellow 5 or orange G and uses thereof” (EAGLE BIOLOGICS, INC., priority 2013, dated 2019).

“And” between values parts separate entries of the source, which are not always exact repeats. Identical values can stand only once.

Series [1] relates to respiratory syncytial virus. The note with it: two Phase III clinical trials, pediatric population.
For series [2] the following is noted: long-term clinical outcomes.

Regarding “palivizumab: humanized mAb directed against an epitope in the A antigenic site of the F protein of respiratory syncytial virus”, the “Reduction of the risk of hospitalization due to respiratory syncytial virus infection” value in series [1] is 55% and 45%. In the case of “vedolizumab: mAb being developed by Millennium Pharmaceuticals for ulcerative colitis and Crohn's disease”, in series [2], the “Patients achieving clinical remission” value was approximately 60%.
